The source made the active and inactive calls. The rule behind the calls is not given here.
Tested on: CCRIS mutagenicity, Ames/micronucleus/aberration tests
Assay: CCRIS mutagenicity studies
[1] = Test System: AMES SALMONELLA TYPHIMURIUM, Strain/Indicator: TA100, Metabolic Activation: NONE, Method: STANDARD PLATE

SMILES: c1ccc(NNc2ccccc2)cc1
- mutagenic call (End Point: IN VITRO CHROMOSOMAL ABERRATIONS, Test System: CHINESE HAMSTER OVARY CELLS, Metabolic Activation: NONE): active; positive; statistically significant increase, but not dose-related
- mutagenic call (End Point: IN VITRO CHROMOSOMAL ABERRATIONS, Test System: CHINESE HAMSTER OVARY CELLS, Metabolic Activation: RAT, LIVER, S-9, AROCLOR 1254): active; positive
- mutagenic call (Test System: AMES SALMONELLA TYPHIMURIUM, Strain/Indicator: TA98, Metabolic Activation: HAMSTER, LIVER, S-9, AROCLOR 1254, Method: STANDARD PLATE): inactive; negative
- mutagenic call (Test System: AMES SALMONELLA TYPHIMURIUM, Strain/Indicator: TA98, Metabolic Activation: HAMSTER, LIVER, S-9, Method: STANDARD PLATE): inactive; negative
- mutagenic call (Test System: AMES SALMONELLA TYPHIMURIUM, Strain/Indicator: TA98, Metabolic Activation: MOUSE, LIVER, S-9, AROCLOR 1254, Method: STANDARD PLATE): inactive; negative
- mutagenic call (Test System: AMES SALMONELLA TYPHIMURIUM, Strain/Indicator: TA98, Metabolic Activation: MOUSE, LIVER, S-9, Method: STANDARD PLATE): inactive; negative
- mutagenic call (Test System: AMES SALMONELLA TYPHIMURIUM, Strain/Indicator: TA98, Metabolic Activation: NONE, Method: STANDARD PLATE): inactive; negative
- mutagenic call (Test System: AMES SALMONELLA TYPHIMURIUM, Strain/Indicator: TA98, Metabolic Activation: RAT, LIVER, S-9, Method: STANDARD PLATE): inactive; negative
- mutagenic call (Test System: AMES SALMONELLA TYPHIMURIUM, Strain/Indicator: TA100, Metabolic Activation: HAMSTER, LIVER, S-9, AROCLOR 1254, Method: STANDARD PLATE): inactive; negative
- mutagenic call (Test System: AMES SALMONELLA TYPHIMURIUM, Strain/Indicator: TA100, Metabolic Activation: HAMSTER, LIVER, S-9, Method: STANDARD PLATE): inactive; negative
- mutagenic call (Test System: AMES SALMONELLA TYPHIMURIUM, Strain/Indicator: TA100, Metabolic Activation: MOUSE, LIVER, S-9, AROCLOR 1254, Method: STANDARD PLATE): active; positive
- mutagenic call (Test System: AMES SALMONELLA TYPHIMURIUM, Strain/Indicator: TA100, Metabolic Activation: MOUSE, LIVER, S-9, Method: STANDARD PLATE): inactive; negative
- mutagenic call [1]: inactive; negative
- mutagenic call (Test System: AMES SALMONELLA TYPHIMURIUM, Strain/Indicator: TA100, Metabolic Activation: RAT, LIVER, S-9, AROCLOR 1254, Method: STANDARD PLATE): active; positive
- mutagenic call (Test System: AMES SALMONELLA TYPHIMURIUM, Strain/Indicator: TA100, Metabolic Activation: RAT, LIVER, S-9, Method: STANDARD PLATE): inactive; negative
- mutagenic call (Test System: AMES SALMONELLA TYPHIMURIUM, Strain/Indicator: TA1535, Metabolic Activation: HAMSTER, LIVER, S-9, AROCLOR 1254, Method: STANDARD PLATE): inactive; negative
- mutagenic call (Test System: AMES SALMONELLA TYPHIMURIUM, Strain/Indicator: TA1535, Metabolic Activation: HAMSTER, LIVER, S-9, Method: STANDARD PLATE): inactive; negative
- mutagenic call (Test System: AMES SALMONELLA TYPHIMURIUM, Strain/Indicator: TA1535, Metabolic Activation: MOUSE, LIVER, S-9, Method: STANDARD PLATE): inactive; negative
- mutagenic call (Test System: AMES SALMONELLA TYPHIMURIUM, Strain/Indicator: TA1535, Metabolic Activation: NONE, Method: STANDARD PLATE): inactive; negative
- mutagenic call (Test System: AMES SALMONELLA TYPHIMURIUM, Strain/Indicator: TA1535, Metabolic Activation: RAT, LIVER, S-9, AROCLOR 1254, Method: STANDARD PLATE): inactive; negative
- mutagenic call (Test System: AMES SALMONELLA TYPHIMURIUM, Strain/Indicator: TA1535, Metabolic Activation: RAT, LIVER, S-9, Method: STANDARD PLATE): inactive; negative
- mutagenic call (Test System: AMES SALMONELLA TYPHIMURIUM, Strain/Indicator: TA1537, Metabolic Activation: HAMSTER, LIVER, S-9, AROCLOR 1254, Method: STANDARD PLATE): inactive; negative
- mutagenic call (Test System: AMES SALMONELLA TYPHIMURIUM, Strain/Indicator: TA1537, Metabolic Activation: HAMSTER, LIVER, S-9, Method: STANDARD PLATE): inactive; negative
- mutagenic call (Test System: AMES SALMONELLA TYPHIMURIUM, Strain/Indicator: TA1537, Metabolic Activation: MOUSE, LIVER, S-9, AROCLOR 1254, Method: STANDARD PLATE): inactive; negative
- mutagenic call (Test System: AMES SALMONELLA TYPHIMURIUM, Strain/Indicator: TA1537, Metabolic Activation: MOUSE, LIVER, S-9, Method: STANDARD PLATE): inactive; negative
- mutagenic call (Test System: AMES SALMONELLA TYPHIMURIUM, Strain/Indicator: TA1537, Metabolic Activation: NONE, Method: STANDARD PLATE): inactive; negative
- mutagenic call (Test System: AMES SALMONELLA TYPHIMURIUM, Strain/Indicator: TA1537, Metabolic Activation: RAT, LIVER, S-9, AROCLOR 1254, Method: STANDARD PLATE): inactive; negative
- mutagenic call (Test System: AMES SALMONELLA TYPHIMURIUM, Strain/Indicator: TA1537, Metabolic Activation: RAT, LIVER, S-9, Method: STANDARD PLATE): inactive; negative
- mutagenic call (Test System: AMES SALMONELLA TYPHIMURIUM, Strain/Indicator: TA1538, Metabolic Activation: HAMSTER, LIVER, S-9, AROCLOR 1254, Method: STANDARD PLATE): inactive; negative
- mutagenic call (Test System: AMES SALMONELLA TYPHIMURIUM, Strain/Indicator: TA1538, Metabolic Activation: HAMSTER, LIVER, S-9, Method: STANDARD PLATE): inactive; negative
- mutagenic call (Test System: AMES SALMONELLA TYPHIMURIUM, Strain/Indicator: TA1538, Metabolic Activation: MOUSE, LIVER, S-9, AROCLOR 1254, Method: STANDARD PLATE): inactive; negative
- mutagenic call (Test System: AMES SALMONELLA TYPHIMURIUM, Strain/Indicator: TA1538, Metabolic Activation: MOUSE, LIVER, S-9, Method: STANDARD PLATE): inactive; negative
- mutagenic call (Test System: AMES SALMONELLA TYPHIMURIUM, Strain/Indicator: TA1538, Metabolic Activation: NONE, Method: STANDARD PLATE): inactive; negative
- mutagenic call (Test System: AMES SALMONELLA TYPHIMURIUM, Strain/Indicator: TA1538, Metabolic Activation: RAT, LIVER, S-9, AROCLOR 1254, Method: STANDARD PLATE): inactive; negative
- mutagenic call (Test System: AMES SALMONELLA TYPHIMURIUM, Strain/Indicator: TA1538, Metabolic Activation: RAT, LIVER, S-9, Method: STANDARD PLATE): inactive; negative
- mutagenic call (Test System: E. COLI, Strain/Indicator: WP2 UVRA, Metabolic Activation: HAMSTER, LIVER, S-9, AROCLOR 1254, Method: STANDARD PLATE): inactive; negative
- mutagenic call (Test System: E. COLI, Strain/Indicator: WP2 UVRA, Metabolic Activation: HAMSTER, LIVER, S-9, Method: STANDARD PLATE): inactive; negative
- mutagenic call (Test System: E. COLI, Strain/Indicator: WP2 UVRA, Metabolic Activation: MOUSE, LIVER, S-9, AROCLOR 1254, Method: STANDARD PLATE): inactive; negative
- mutagenic call (Test System: E. COLI, Strain/Indicator: WP2 UVRA, Metabolic Activation: MOUSE, LIVER, S-9, Method: STANDARD PLATE): inactive; negative
- mutagenic call (Test System: E. COLI, Strain/Indicator: WP2 UVRA, Metabolic Activation: NONE, Method: STANDARD PLATE): inactive; negative
- mutagenic call (Test System: E. COLI, Strain/Indicator: WP2 UVRA, Metabolic Activation: RAT, LIVER, S-9, AROCLOR 1254, Method: STANDARD PLATE): inactive; negative
- mutagenic call (Test System: E. COLI, Strain/Indicator: WP2 UVRA, Metabolic Activation: RAT, LIVER, S-9, Method: STANDARD PLATE): inactive; negative

SMILES: NNC(=O)c1[nH]c2ccccc2c1N
- mutagenic call (Test System: AMES SALMONELLA TYPHIMURIUM, Strain/Indicator: TA97, Metabolic Activation: NONE, Method: PREINCUBATION): active; positive
- mutagenic call (Test System: AMES SALMONELLA TYPHIMURIUM, Strain/Indicator: TA97, Metabolic Activation: S-9 (10%), Method: PREINCUBATION): inactive; negative
- mutagenic call (Test System: AMES SALMONELLA TYPHIMURIUM, Strain/Indicator: TA98, Metabolic Activation: NONE, Method: PREINCUBATION): active; positive
- mutagenic call (Test System: AMES SALMONELLA TYPHIMURIUM, Strain/Indicator: TA98, Metabolic Activation: S-9 (10%), Method: PREINCUBATION): inactive; negative
- mutagenic call (Test System: AMES SALMONELLA TYPHIMURIUM, Strain/Indicator: TA100, Metabolic Activation: NONE, Method: PREINCUBATION): inactive; negative
- mutagenic call (Test System: AMES SALMONELLA TYPHIMURIUM, Strain/Indicator: TA100, Metabolic Activation: S-9 (10%), Method: PREINCUBATION): inactive; negative
- mutagenic call (Test System: AMES SALMONELLA TYPHIMURIUM, Strain/Indicator: TA102, Metabolic Activation: NONE, Method: PREINCUBATION): inactive; negative
- mutagenic call (Test System: AMES SALMONELLA TYPHIMURIUM, Strain/Indicator: TA102, Metabolic Activation: S-9 (10%), Method: PREINCUBATION): inactive; negative

SMILES: c1ccc2c(c1)cc1c3cccc4cccc(c5cccc2c51)c43
- mutagenic call (Test System: HUMAN H1A1V2 CELLS, Strain/Indicator: TK LOCUS, Metabolic Activation: NONE, Method: SUSPENSION/PLATE): active; positive

SMILES: O=C1OC(O)C(CBr)=C1Br (configuration not stated)
- mutagenic call [1]: active; positive

From PubChem BioAssay AID1259407 (Chemical Carcinogenesis Research Information System (CCRIS), 2018)
